Results published in US7109193B2, “Tricyclic diazepines tocolytic oxytocin receptor antagonists” (Wyeth, priority 2001, dated 2006).

Molecular target: T1, human oxytocin receptor (Homo sapiens, UniProt P30559)
T1 construct: host or cells: CHO cells (pcDNA3.1 vector)
T1 sequence (P30559 1-389): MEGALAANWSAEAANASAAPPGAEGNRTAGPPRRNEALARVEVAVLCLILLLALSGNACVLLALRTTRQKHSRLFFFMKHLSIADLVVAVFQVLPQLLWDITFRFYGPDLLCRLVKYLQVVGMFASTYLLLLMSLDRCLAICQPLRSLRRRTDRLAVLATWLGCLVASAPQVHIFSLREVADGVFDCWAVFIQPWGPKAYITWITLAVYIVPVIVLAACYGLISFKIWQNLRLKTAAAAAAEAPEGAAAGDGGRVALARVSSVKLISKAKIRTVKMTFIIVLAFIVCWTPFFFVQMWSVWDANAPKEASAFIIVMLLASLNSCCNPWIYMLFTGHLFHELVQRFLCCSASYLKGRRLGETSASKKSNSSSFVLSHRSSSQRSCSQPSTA
Assay: Oxytocin binding in Chinese Hamster Ovary cell membranes expressing human oxytocin receptors
Conditions: CHO cell membranes, [3H]oxytocin; for IC50: values in parentheses, read-out: OT (IC50); for inhibition at 0.1 µM: 100 nM, values without parentheses, read-out: OT % inhibition @ 100% nM

Row | IC50 [nM] | inhibition at 0.1 µM [%] | Compound
1 | 7.19 | – | COc1cc(-c2ccccc2C)c(Cl)cc1C(=O)N1Cc2ccc(C(=O)N3CCC(N4CCCC4)CC3)n2Cc2ccccc21 [Example 136, {10-[(6-Chloro-3-methoxy-2′-methyl[1,1′-biphenyl]-4-yl)carbonyl]-10,11-dihydro-5H-pyrrolo[2,1-c][1,4]benzodiazepin-3-yl}[4-(1-pyrrolidinyl)-1-piperidinyl]methanone]
2 | 18.1 | – | COc1cc(C(=O)N2Cc3cccn3Cc3ccccc32)ccc1-n1c(C)ccc1C [Example 27, [4-(2,5-Dimethyl-1-H-pyrrol-1-yl)-3-methoxy-phenyl][10,11-dihydro-5H-pyrrolo[2,1-c][1,4]benzodiazepin-10-yl]methanone]
3 | 6.7 | – | COc1ccccc1-c1ccc(C(=O)N2Cc3ccc(C(=O)N4CCN(C)CC4)n3Cc3ccccc32)cc1 [Example 48, {10-[(2′-Methoxy[1,1′-biphenyl]-4-yl)carbonyl]-10,11-dihydro-5H-pyrrolo[2,1-c][1,4]benzodiazepin-3-yl}(4-methyl-1-piperazinyl)methanone]
4 | – | 43 | COc1ccccc1-c1ccc(C(=O)N2Cc3ccc(C(=O)NCCCN(C)C)n3Cc3ccccc32)cc1OC [Example 81, 10-[(2,2′-Dimethoxy[1,1′-biphenyl]-4-yl)carbonyl]-N-[3-(dimethylamino)propyl]-10,11-dihydro-5H-pyrrolo[2,1-c][1,4]benzodiazepine-3-carboxamide]
5 | – | 99 | COc1cc(C(=O)N2Cc3ccc(C(=O)N(C)CCN(C)C)n3Cc3ccccc32)ccc1-c1ccccc1C [Example 92, N-[2-(Dimethylamino)ethyl]-10-[(2-methoxy-2′-methyl[1,1′-biphenyl]-4-yl)carbonyl]-N-methyl-10,11-dihydro-5H-pyrrolo[2,1-c][1,4]benzodiazepine-3-carboxamide]
6 | 14.5 | – | COc1cc(-c2ccccc2F)c(Cl)cc1C(=O)N1Cc2cccn2Cc2ccccc21 [Example 18B, 10-{[6-Chloro-3-methoxy-2′-fluoro-[1,1′-biphenyl]-4-yl]carbonyl}-10,11-dihydro-5H-pyrrolo[2,1-c][1,4]benzodiazepine]
7 | 6.7 | – | COc1ccccc1-c1ccc(C(=O)N2Cc3ccc(C(=O)N4CCC(N5CCCCC5)CC4)n3Cc3ccccc32)cc1 [Example 111, {10-[(2′-Methoxy[1,1′-biphenyl]-4-yl)carbonyl]-10,11-dihydro-5H-pyrrolo[2,1-c][1,4]benzodiazepin-3-yl}[4-(1-piperidinyl)-1-piperidinyl]methanone]
8 | 185 | – | COc1cc(-c2ccccc2C(F)(F)F)c(OC)cc1C(=O)N1Cc2cccn2Cc2ccccc21 [Example 32, 10-{[3,6-Dimethoxy-2′-trifluoromethyl-[1,1′-biphenyl]-4-yl]carbonyl}-10,11-dihydro-5H-pyrrolo[2,1-c][1,4]benzodiazepine]
9 | – | 100 | Cc1ccccc1-c1ccc(C(=O)N2Cc3ccc(C(=O)N(C)CCCN(C)C)n3Cc3ccccc32)cc1C [Example 101, N-[3-(Dimethylamino)propyl]-10-[(2,2′-dimethyl[1,1′-biphenyl]-4-yl)carbonyl]-N-methyl-10,11-dihydro-5H-pyrrolo[2,1-c][1,4]benzodiazepine-3-carboxamide]
10 | 16.4 | – | Cc1cc(C(=O)N2Cc3ccc(C(=O)N4CCCN(C)CC4)n3Cc3ccccc32)ccc1-c1ccccc1C(F)(F)F [Example 59, (4-Methyl-1,4-diazepan-1-yl)(10-{[2-methyl-2′-(trifluoromethyl)[1,1′-biphenyl]-4-yl]carbonyl}-10,11-dihydro-5H-pyrrolo[2,1-c][1,4]benzodiazepin-3-yl)methanone]
11 | 16.9 | – | COc1ccccc1-c1ccc(C(=O)N2Cc3ccc(C(=O)N4CCN(CCCN(C)C)CC4)n3Cc3ccccc32)cc1C [Example 245, {4-[3-(Dimethylamino)propyl]-1-piperazinyl}{10-[(2′-methoxy-2-methyl[1,1′-biphenyl]-4-yl)carbonyl]-10,11-dihydro-5H-pyrrolo[2,1-c][1,4]benzodiazepin-3-yl}methanone]
12 | 2.31 | – | COc1cc(-c2ccccc2C)c(Cl)cc1C(=O)N1Cc2ccc(C(=O)N(C)CCN(C)C)n2Cc2ccccc21 [Example 86, 10-[(6-Chloro-3-methoxy-2′-methyl[1,1′-biphenyl]-4-yl)carbonyl]-N-[2-(dimethylamino)ethyl]-N-methyl-10,11-dihydro-5H-pyrrolo[2,1-c][1,4]benzodiazepine-3-carboxamide]
13 | – | 98 | COc1ccccc1-c1ccc(C(=O)N2Cc3ccc(C(=O)N(C)CCN(C)C)n3Cc3ccccc32)cc1C [Example 88, N-[2-(Dimethylamino)ethyl]-10-[(2′-methoxy-2-methyl[1,1′-biphenyl]-4-yl)carbonyl]-N-methyl-10,11-dihydro-5H-pyrrolo[2,1-c][1,4]benzodiazepine-3-carboxamide]
14 | 7.93 | – | COc1cc(-c2ccccc2C)c(Cl)cc1C(=O)N1Cc2ccc(C(=O)N3CCC(N4CCCCC4)CC3)n2Cc2ccccc21 [Example 110, {10-[(6-Chloro-3-methoxy-2′-methyl[1,1′-biphenyl]-4-yl)carbonyl]-10,11-dihydro-5H-pyrrolo[2,1-c][1,4]benzodiazepin-3-yl}[4-(1-piperidinyl)-1-piperidinyl]methanone]
15 | – | 88 | COc1cc(C(=O)N2Cc3ccc(C(=O)N(C)CCCN(C)C)n3Cc3ccccc32)ccc1-c1cccc2ccccc12 [Example 106, N-[3-(Dimethylamino)propyl]-10-[3-methoxy-4-(1-naphthyl)benzoyl]-N-methyl-10,11-dihydro-5H-pyrrolo[2,1-c][1,4]benzodiazepine-3-carboxamide]
16 | 29.5 | – | O=C(c1ccc(-c2cccc3ccccc23)nc1)N1Cc2cccn2Cc2ccccc21 [Example 28, [6-(Naphthalen-1-yl)-pyridin-3-yl]-[10,11-dihydro-5H-pyrrolo[2,1-c][1,4]benzodiazepin-10-yl]methanone]
17 | 3.02 | – | Cc1cc(C(=O)N2Cc3ccc(C(=O)N(C)CCN(C)C)n3Cc3ccccc32)ccc1-c1ccccc1C(F)(F)F [Example 85, N-[2-(Dimethylamino)ethyl]-N-methyl-10-{[2-methyl-2′-(trifluoromethyl)[1,1′-biphenyl]-4-yl]carbonyl}-10,11-dihydro-5H-pyrrolo[2,1-c][1,4]benzodiazepine-3-carboxamide]
18 | 9.5 | – | COc1ccccc1-c1ccc(C(=O)N2Cc3ccc(C(=O)N4CCN(CCN5CCOCC5)CC4)n3Cc3ccccc32)cc1 [Example 207, {10-[(2′-Methoxy[1,1′-biphenyl]-4-yl)carbonyl]-10,11-dihydro-5H-pyrrolo[2,1-c][1,4]benzodiazepin-3-yl}{4-[2-(4-morpholinyl)ethyl]-1-piperazinyl}methanone]
19 | 1.66 | – | COc1cc(-c2ccccc2Cl)c(Cl)cc1C(=O)N1Cc2ccc(C(=O)N(C)C3CCN(C)CC3)n2Cc2ccccc21 [Example 43, 10-[(2′-Chloro-6-chloro-3-methoxy-[1,1′-biphenyl]-4-yl)carbonyl]-N-methyl-N-(1-methylpiperidin-4-yl)-10,11-dihydro-5H-pyrrolo[2,1-c][1,4]benzodiazepine-3-carboxamide]
20 | 4.5 | – | COc1ccccc1-c1ccc(C(=O)N2Cc3ccc(C(=O)N4CCCN(C)CC4)n3Cc3ccccc32)cc1 [Example 61, {10-[(2′-Methoxy[1,1′-biphenyl]-4-yl)carbonyl]-10,11-dihydro-5H-pyrrolo[2,1-c][1,4]benzodiazepin-3-yl}(4-methyl-1,4-diazepan-1-yl)methanone]
21 | 4.63 | – | COc1cccc(-c2cc(OC)c(C(=O)N3Cc4ccc(C(=O)N(C)CCN(C)C)n4Cc4ccccc43)cc2Cl)c1 [Example 87, 10-[(6-Chloro-3,3′-dimethoxy[1,1′-biphenyl]-4-yl)carbonyl]-N-[2-(dimethylamino)ethyl]-N-methyl-10,11-dihydro-5H-pyrrolo[2,1-c][1,4]benzodiazepine-3-carboxamide]
22 | – | 97 | COc1cc(C(=O)N2Cc3ccc(C(=O)N(C)CCCN(C)C)n3Cc3ccccc32)ccc1-c1ccccc1C [Example 105, N-[3-(Dimethylamino)propyl]-10-[(2-methoxy-2′-methyl[1,1′-biphenyl]-4-yl)carbonyl]-N-methyl-10,11-dihydro-5H-pyrrolo[2,1-c][1,4]benzodiazepine-3-carboxamide]
23 | 7.2 | – | C=CCN1CCN(C(=O)c2ccc3n2Cc2ccccc2N(C(=O)c2ccc(-c4ccccc4C)c(C)c2)C3)CC1 [Example 220, (4-Allyl-1-piperazinyl){10-[(2,2′-dimethyl[1,1′-biphenyl]-4-yl)carbonyl]-10,11-dihydro-5H -pyrrolo[2,1-c][1,4]benzodiazepin-3-yl}methanone]
24 | 2.31 | – | COc1cccc(-c2ccc(C(=O)N3Cc4ccc(C(=O)N5CCC[C@H]5CN5CCCC5)n4Cc4ccccc43)cc2C)c1 [Example 263, {10-[(3′-Methoxy-2-methyl[1,1′-biphenyl]-4-yl)carbonyl]-10,11-dihydro-5H-pyrrolo[2,1-c][1,4]benzodiazepin-3-yl}[(2S)-2-(1-pyrrolidinylmethyl)pyrrolidinyl]methanone]
25 | – | 97 | Cc1ccccc1-c1ccc(C(=O)N2Cc3ccc(C(=O)N(C)CCN(C)C)n3Cc3ccccc32)cc1 [Example 91, N-[2-(Dimethylamino)ethyl]-N-methyl-10-[(2′-methyl[1,1′-biphenyl]-4-yl)carbonyl]-10,11-dihydro-5H-pyrrolo[2,1-c][1,4]benzodiazepine-3-carboxamide]
